{"source": "patent US10583115B2", "about": "“Modulators of 14-3-3 functionality and uses thereof” (University of South Australia, priority 2014, dated 2020)", "key": {"recombinant 14-3-3ζ [1]": {"biological_target": "T1, recombinant 14-3-3ζ (Homo sapiens, UniProt P63104)", "T1 construct": "0.5 μg of purified recombinant 14-3-3", "T1 sequence (P63104 1-245)": "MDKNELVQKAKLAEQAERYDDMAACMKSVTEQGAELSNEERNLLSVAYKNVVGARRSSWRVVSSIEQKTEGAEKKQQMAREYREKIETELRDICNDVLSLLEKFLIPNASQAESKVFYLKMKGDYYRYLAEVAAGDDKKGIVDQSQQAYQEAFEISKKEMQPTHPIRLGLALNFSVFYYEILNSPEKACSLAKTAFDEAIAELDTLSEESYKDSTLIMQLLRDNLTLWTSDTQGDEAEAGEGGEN", "assay": "14-3-3 phosphorylation assay (PKA, in vitro)", "type": "biochemical", "protocol": "(§1) Substrate 14-3-3 (0.5 μg of purified recombinant 14-3-3) was added to 15 μl reaction mixture comprising 0.2 U of the PKA catalytic subunit, in the presence or absence of compounds (delivered in 0.1% v/v ethanol) in PKA reaction buffer (10 mM Tris-HCl pH 7.4, 15 mM MgCl2, 3 mM DTT) containing 25 μM ATP and 0.3 μCi [^32P] 7-ATP). Reactions were incubated at 37° C. for 15 min. After incubation, reactions were separated on 12.5% SDS-PAGE, coomassie stained and 14-3-3 phosphorylation analysed by autoradiography."}, "recombinant 14-3-3ζ [2]": {"tested_on": "recombinant 14-3-3ζ", "assay": "14-3-3 phosphorylation assay (PKA, in vitro)", "type": "biochemical", "conditions": "S58A versus Wt recombinant 14-3-3", "protocol": "as §1"}, "Jurkat cells": {"tested_on": "Jurkat cells", "assay": "Jurkat apoptosis assays (TMRE, caspase 3, Annexin V, viability by flow cytometry)", "type": "cell-based", "protocol": "(§2) Jurkat cells were routinely set up in apoptosis assays at 2×10^5/ml in RPMI with 0.5% FBS. After treatment, cells were stained either with 200 nM TMRE, 5 μl/ml NucView™ (Biotium), or Annexin V-FITC (Roche) for 15 mins prior to analysis by flow cytometry. Forward- and side-scatter properties were used to exclude debris and a ‘viable’ gate corresponding to the intact, PI negative cell population was used for fluorescence analysis. For A549, cells at 90% confluency were treated with RB compounds for 48 hrs in DMEM with 0.5% FBS. After treatment, cells were released with trypsin and then stained with NucView™ prior to analysis by flow cytometry."}, "[3]": {"tested_on": "Jurkat cells over-expressing Bcl-2", "assay": "Apoptosis assays in Jurkat cells over-expressing Bcl-2", "type": "cell-based", "conditions": "5 μM, 20 hours", "protocol": "Jurkat cells were obtained from the ATCC and A549 cell lines from ECACC. Jurkat cells were routinely cultured in RPMI with 10% FBS and A549 cells in DMEM with 10% FBS at 37° C. with 5% CO2 Jurkat Bcl-2 cells were generated by lentiviral transduction using a third generation lentiviral construct, as described previously (10) containing a Bcl-2α-IRES-IL2Rα encoding cassette. Transduced cells were FACS sorted for expression of IL2Rα using anti-CD25-PE (BD Pharmingen #555433) to enrich for Bcl-2 over-expressing cells and protein expression was further confirmed by immunoblotting with anti-Bcl-2 antibody (#610538; BD Transduction Laboratories, data not shown).\nas §2"}, "[4]": {"conditions": "reported value; cited from earlier work"}, "A549 xenograft": {"tested_on": "A549 xenograft", "assay": "A549 xenograft study", "type": "in vivo, BALB/c nude mice", "protocol": "All experimental procedures involving animals were conducted in accordance with the NHMRC Australian Code for the Care and Use of Animals for Scientific Purposes and with approval by the institutional animal ethics committee. BALB/c nude mice (Nu/Nu, female, 5-6 weeks old) were purchased from the Animal Resources Centre (Perth, Wash.) and maintained under pathogen-free conditions. A549 cells (5×106) in 100 μl PBS were injected subcutaneously into the flanks of the mice and the resulting tumour were measured using digital callipers. The tumour volume was calculated using the following formula: Volume=(larger diameter)×(small diameter)2/2. Once the tumours had reached 100 mm3, mice were divided into groups of 9 and each group administered either RB-012 in saline, FTY720 in saline or saline alone by intraperitoneal injection daily. Initially RB-12 and FTY720 were administered at 2 mg/kg for two days and then the dose was increased to 5 mg/kg for two weeks after which RB-012 was increased to 10 mg/kg but FTY720 maintained at 5 mg/kg. During this dosing regime tumours were monitored twice a week. Differences between samples were analysed using 2 way Anova and statistical significance was accepted at P<0.05.\nTo assess the effect of RB-012 on human lung cancer growth in vivo, A549 cells were implanted subcutaneously on the flanks of Balb/C nude mice and tumours allowed to develop until they had reached a volume of 100 mm^3. RB-012 or saline was then administered daily to assess the effect on tumour growth. Initially, to reduce the cramping and encourage tolerance, 2 mg/kg RB-012 was administered for two days and then the dose was increased to 5 mg/kg daily for two weeks. Tumour volume was monitored twice a week and after two weeks of treatment mice administered RB-012 had tumours that were 20% smaller than mice receiving saline. […] The tumours on the RB-012 treated mice continued to grow more slowly and after the third week were 30% smaller than those of saline-treated mice (P<0.05). […] Therefore we were unable to increase FTY720 dosing to match RB-012."}, "A549 cells [5]": {"tested_on": "A549 cells", "assay": "A549 cell viability by MTS assay", "type": "cell-based, human", "conditions": "48 hrs treatment", "protocol": "A549 cells (2500/well) were plated in 96 well trays in DMEM with 0.5% FBS and cultured at 37° C. with 5% CO2 overnight. The following day RB compounds were added and cells incubated for a further 48 hours prior to removal of the medium and replacement with MTS reagent diluted 1:6 in Dulbecco's PBS. The cells were incubated at 37° C. for a further 4 hours and the conversion of MTS to the coloured formazan compound determined by measurement of absorbance at 490 nm."}, "A549 cells [6]": {"tested_on": "A549 cells", "assay": "A549 caspase-3 activation (NucView, flow cytometry)", "type": "cell-based, human", "conditions": "48 hrs treatment", "protocol": "as §2"}, "[7]": {"tested_on": "incisional wounds of dorsal skin", "assay": "Incisional wound healing model", "type": "in vivo, mice", "protocol": "A murine model of wound healing was utilised. In this model, 2×1 cm full thickness wounds were created in the dorsal skin. Wound healing was monitored using cohorts of mice humanely killed at 3, 5, 7 and 14 days post-wounding. Re-epithelialization was quantified histologically, by measuring the distance between epithelial margins sectioned in the transverse plane (Ansell D. M. et al. (2014) Wound Rep Reg 22: 281-287).\nIncisional wounding was carried out as we have previously detailed (Lees et al. (2013) The Journal of investigative dermatology 133, 1330-1339). Briefly, two full-thickness 1 cm incisions were created on the dorsal skin of 12 week old female mice and allowed to heal. RB-11 (10 μg per mouse), 4-hydroxytamoxifen (50 μg per mouse) or vehicle was applied in a total volume of 20 μl to the edge of each wound using a micropipette and allowed to absorb into the skin. At the appropriate time point (2, 5, 7, 14 and 21 days) following incisional wounding, mice were humanely killed and tissues harvested. From each mouse, one wound was completed excised and fixed in 4% formalin overnight at 4° C. Following fixation, the wound was carefully bisected at the middle across the wound, processed and embedded in paraffin for histological and immunofluorescence analysis. Wound widths were measured on scanned images of H&E stained sections using NDPView slide scanning and image quantification software. The remaining wound was bisected across the wound, snap-frozen and processed for gene expression analysis.\n14-3-3ζ-deficient and wild-type mice were subjected to the incisional wounding protocol followed by treatment with vehicle or RB-11 (5× daily topical treatments of 11.5 μg). […] Slides were optically scanned using a Nanozoomer slide scanner (Hamamatsu, Japan) and the wound gap measured using Imagescope software (Leica Biosystems, Germany). Values were plotted on a box and whisker plot and statistical significant assessed using the Mann-Whitney test together with Dunnett's post hoc test."}, "WT dermal fibroblasts": {"tested_on": "WT dermal fibroblasts", "assay": "Collagen remodeling assay and cell morphology, wild-type dermal fibroblasts", "type": "cell-based, mice", "conditions": "10 μM", "protocol": "(§3) Rat-tail tendon collagen was prepared by extraction with 0.5 M acetic acid to a concentration of ˜2 mg/ml. 8×10^4 cells/ml WT or 14-3-3ζ KO dermal fibroblasts (labeled with either eGFP or mCherry) were embedded in this three-dimensional collagen 1 matrix and incubated in DMEM with 10% FCS and 10 mM L-Glutamine at 37° C. and 5% CO2. Detached polymerized matrix (2.5 ml) was allowed to contract for 11 days. During contraction, matrices were either left untreated or incubated with 10 μM RB-11. Media was changed on day 1 and on day 6. To calculate contraction rates and obtain information on cell morphology matrices were imaged every second day in phase contrast on a Leica DMIL LED inverted microscope with either a 4×/NA0.10 HI PLAN or a 10×/NA0.22 HI PLAN I air objective.\n(§4) Measuring the mean diameter of three matrices and normalizing the diameter to day 1 determined contraction rates. Cell morphology was described by manually counting the number of cell protrusions/cell and the number of blebbing cells.\nTo determine the circularity of cells images were processed in ImageJ (NIH) according to following routine. Images were converted to 8 Bit images and cropped to an image size equivalent to […]. Grey values were thresholded to select cells. The ‘analyze particles’ function was used to determine circularity of cells. Circularity values range from 0 to 1 with ‘0’ representing rod-shaped cells and ‘1’ representing perfectly circular cells.\n10^6 14-3-3ζ-deficient or wild-type dermal fibroblasts were embedded in 2 mg/mL % rat tail collagen plugs made with or without 10 μM RB-11. The plugs were maintained in DMEM containing 10% foetal bovine serum in a humidified incubator at 37° C. Collagen plugs were photographed on days 2, 6 and 12 and the area of the image occupied by the collage plug measured."}, "[8]": {"tested_on": "14-3-3ζ KO dermal fibroblasts", "assay": "Collagen remodeling assay and cell morphology, 14-3-3ζ KO dermal fibroblasts", "type": "cell-based, mice", "conditions": "10 μM", "protocol": "as §3, §4\nTo determine the circularity of cells images were processed in ImageJ (NIH) according to following routine. […]\n10^6 14-3-3ζ-deficient or wild-type dermal fibroblasts were embedded in 2 mg/mL % rat tail collagen plugs made with or without 10 μM RB-11. […] Collagen plugs were photographed on days 2, 6 and 12 and the area of the image occupied by the collage plug measured."}}, "note": "“Also recorded” adds a separate entry of the source.", "data": [{"smiles": "CCCCCCCCCCCCCCCC[N+](C)(C)C.[Br-]", "note": "[CTAB, cetyltrimethylammonium bromide]", "values": [{"measurement": "concentration above which 14-3-3 phosphorylation plateaus", "setting": "recombinant 14-3-3ζ [1]; dose-response study", "result": "above 25 μM"}, {"measurement": "concentrations able to induce 14-3-3 phosphorylation", "setting": "recombinant 14-3-3ζ [1]; dose-response study", "result": "low micromolar concentrations"}, {"measurement": "concentration above which phosphorylation of 14-3-3 increased dramatically", "setting": "recombinant 14-3-3ζ [1]; potentially non-specific protein denaturation", "result": "above 75 μM"}, {"measurement": "rendering 14-3-3 phosphorylatable (phosphorylation of 14-3-3 by PKA in vitro)", "setting": "recombinant 14-3-3ζ [1]; recombinant 14-3-3 and PKA catalytic subunit", "result": "dose-dependent increase in 14-3-3 phosphorylation"}, {"measurement": "phosphorylation site of 14-3-3ζ revealed", "setting": "recombinant 14-3-3ζ [2]", "result": "Ser58"}, {"measurement": "caspase-3 activation", "setting": "Jurkat cells; 5 μM, 20 hours", "result": "induce caspase-3 activation"}, {"measurement": "cell death in Bcl-2 over-expressing cells", "setting": "[3]", "result": "protected from CTAB-induced cell death"}, {"measurement": "critical micelle concentration", "setting": "[4]", "result": 0.92, "unit": "mM"}]}, {"smiles": "CCCCCCCCc1ccc(CCC(N)(CO)CO)cc1", "note": "[FTY720]", "values": [{"measurement": "tumour size versus saline", "setting": "A549 xenograft; 5 mg/kg daily i.p.", "result": "no reduction in tumour size; also recorded: did not elicit a reduction in tumour growth"}, {"measurement": "adverse effects at 10 mg/kg", "setting": "A549 xenograft; 10 mg/kg", "result": "severe cramping with cardiac arrhythmia, with fatality in some cases"}, {"measurement": "tolerability at 10 mg/kg", "setting": "A549 xenograft; mouse, in vivo", "result": "not tolerated"}]}, {"smiles": "CCCCCCCCc1ccc(CC[N+]2(C)CCCC2)cc1", "note": "[RB-011]", "values": [{"measurement": "ED50 for apoptosis induction, in words", "setting": "Jurkat cells", "result": "low micromolar range"}, {"measurement": "Annexin V presentation", "setting": "Jurkat cells; 5 μM, 24 hours", "result": "Annexin V presentation"}, {"measurement": "cell viability", "setting": "Jurkat cells; 5 μM, 24 hours", "result": "loss of viability"}, {"measurement": "apoptosis as determined by caspase-3 activation", "setting": "Jurkat cells; 5 μM, within 5 hours", "result": "readily able to activate apoptosis"}, {"measurement": "EC50", "setting": "Jurkat cells; Homo sapiens, Jurkat, 5 h, read-out: ED50 for apoptosis induction (initial activation of caspase-3)", "result": 2, "unit": "µM"}, {"measurement": "cell viability / growth and survival (MTS), in words", "setting": "A549 cells [5]", "result": "inhibited"}, {"measurement": "IC50", "setting": "A549 cells [5]; Homo sapiens, A549", "result": 7, "unit": "µM"}, {"measurement": "caspase-3 activation", "setting": "A549 cells [6]", "result": "induce caspase activation"}, {"measurement": "rate of re-epithelialization", "setting": "[7]; WT mice, topical 10 μg [25 nmol] once daily for 7 days", "result": "increased the rate of re-epithelialization"}, {"measurement": "collagen production around wound margins (SHG)", "setting": "[7]; WT mice, topical 10 μg once daily for 7 days", "result": "elevated collagen production"}, {"measurement": "wound healing (wound width)", "setting": "[7]; wild-type mice, 5× daily topical treatments of 11.5 μg, day 5 following wounding", "result": "hastened wound healing"}, {"measurement": "cell morphology by circularity analysis", "setting": "WT dermal fibroblasts", "result": "rounded morphology"}, {"measurement": "cell morphology in 3D collagen organotypic matrices (live-cell imaging)", "setting": "WT dermal fibroblasts", "result": "contracted morphology"}, {"measurement": "collagen remodeling ability (contraction of collagen plug/matrix)", "setting": "WT dermal fibroblasts; listed as RB-11", "result": "unable to remodel the collagen plug; also recorded: significantly reduced collagen remodeling ability"}, {"measurement": "cell morphology by circularity analysis", "setting": "[8]", "result": "no further change in the morphology"}, {"measurement": "ability to remodel a collagen plug", "setting": "[8]; compared to wild type fibroblasts", "result": "reduced ability to remodel a collagen plug"}]}]}
